Laboratory results taken from article PMC12181424, “A genetically tractable branch of environmental Pedobacter from the phylum Bacteroidota represents a hotspot for natural product discovery” (Scientific Reports, 2025).
Non-standard residues stand in square brackets, D forms with d. Residues, ends and D or L forms follow the SMILES beside them. *: point of attachment. Isovaleryl = CC(C)CC(=O)*; ΔVal = CC(C)=C(N)C(=O)O; X1 = CC[C@H](C)C(=O)*

Legend:
[1] = test system: P. cryoconitis PAMC 27485; assay: Antibiotic sensitivity screen of wild-type strain (choice of selection marker); assay type: cell-based, Pedobacter cryoconitis; details: P. cryoconitis PAMC 27485 wild type
Description: (§1) We built a random transposon insertion plasmid (pCRYO1 (Fig. S2)) based on a HIMAR transposon pSAMbt system, initially designed for Bacteroides thetaiotaomicron in which we introduced the constitutive P. cryoconitis promoters of gyrB and rpl13 and used erythromycin as a resistance marker[41] (Fig. 3A). We obtained erythromycin-resistant clones by conjugation and electroporation and confirmed the presence of the ermR gene by colony PCR (Material and Methods).
(§2) To genetically modify P. cryoconitis, we first screened different antibiotics (streptomycin, ampicillin, kanamycin, apramycin, chloramphenicol, and erythromycin) against P. cryoconitis PAMC 27485 and P. cryoconitis DSM 14825^T. Only erythromycin (100 µg/ml) and chloramphenicol (150 µg/ml) were effective and selected as markers. A transposon plasmid, pCRYO-01 was modified based on pSAM bt[30] by assembling PCR-amplified regions upstream of the P. cryoconitis PAMC 27485 gyrB (AMQ00279.1, 228 bps) and rpl13 genes (AMQ00867.1, 178 bps) with the erythromycin resistance (ermR) and the transposase genes via Gibson Assembly. PCR reactions were carried out using Q5 polymerase (New England Biolabs) as specified by the manufacturer. Conjugation experiments were performed using E. coli WM3064/pCRYO-01 and P. cryoconitis (overnight cultures) on LB, POM, and R2A (with 5 mM final MgCl2) agar with different donor-recipient ratios (1:1, 2:1, 3:1) for 48 h. Cells were scraped off, serially diluted, and plated on R2A agar plates with erythromycin (50, 100, 150, and 200 µg/ml). Erythromycin-resistant colonies were tested for ermR presence and plasmid backbone absence by colony PCR. A 3:1 donor-recipient ratio at 23 °C yielded the highest number of transformants. Dilution of the inoculum at 10^− 1 or 10^− 2 was optimal for single colonies, with more transformants observed in P. cryoconitis PAMC 27485 compared to P. cryoconitis DSM 14825^T. For electroporation, P. cryoconitis PAMC 27485 cells (OD 0.4) were made competent by washing 3-times with ice-cold 10% glycerol (centrifugation at 5000 rpm). Aliquots of 50 µl were mixed with pCRYO1. After electroporation (12.5 kV/cm), cells were cultured without antibiotics for 5 h, then plated on R2A with 150 µg/ml erythromycin. Colonies appeared within 3 days, with 100% carrying the transposon cassette, though efficiency was lower than with conjugation. Electroporation of competent cells stored at -80 °C was also possible.

[2] = test system: P. cryoconitis DSM 14825^T; assay: as above; assay type: cell-based, Pedobacter cryoconitis; details: P. cryoconitis DSM 14825^T wild type
Description: as §1, §2

[3] = test system: bacterial and fungal indicator strains; assay: Screening against bacterial and fungal indicator strains (whole panel, as summarised in the text); assay type: cell-based; details: summary in the text of Table S11; no growth inhibitory effects
Candida albicans FH2173 = assay type: cell-based
[4] = test system: human cysteine protease cathepsin B; assay: Cysteine protease inhibition testing; assay type: biochemical; details: tested concentration 20 µM; procedure of Brinkmann et al.
[5] = test system: human cysteine protease cathepsin L; assay: Cysteine protease inhibition testing; assay type: biochemical; details: tested concentration 20 µM; procedure of Brinkmann et al.
[6] = test system: Mycobacterium smegmatis ATCC607; assay type: cell-based
rhodesain = details: tested concentration 20 µM; procedure of Brinkmann et al.
Description: The cryopeptins are linear lipopeptides containing the non-proteinogenic amino acid dehydrovaline. This amino acid is a rare building block, and its occurrence is yet limited to linear peptides. For instance, dehydrovaline is found in cytotoxic yakuamides from the sponge Ceratopsion sp[42]. and in the myxobacterial antibiotic myxovalargin[43]. […] In addition, 4 and 5 underwent screening against the human cysteine proteases cathepsin B and L, and rhodesain, the cysteine protease of Trypanosoma brucei rhodesiense according to the procedure described in[45].
The minimum inhibitory concentrations (MIC) of pure compounds were determined as described by Orban et al.3 Pure compounds were screened against Escherichia coli ATCC35218, Mycobacterium smegmatis ATCC607, Staphylococcus aureus ATCC33592, Candida albicans FH2173 and Septoria tritici MUCL45407. Protease testings (human cysteine proteases cathepsin B and L, trypanosomal cysteine protease rhodesain) were performed at concentrations of 20 μM as described in Brinkmann et al.4.

[7] = test system: Staphylococcus aureus ATCC33592; assay type: cell-based
[8] = test system: Escherichia coli ATCC35218; assay type: cell-based
[9] = test system: Septoria tritici MUCL45407; assay type: cell-based

Compound	concentration that inhibited the growth of the wild-type strain [1] [µg/mL]	concentration that inhibited the growth of the wild-type strain [2] [µg/mL]	Minimal inhibitory concentration against bacterial and fungal indicator strains [3] [mg/L]	MIC Candida albicans FH2173 (Candida albicans FH2173) [mg/L]	protease inhibitory activity, cathepsin B [4]	protease inhibitory activity, cathepsin L [5]	MIC Myobacterium smegmatis ATCC607 [6] [mg/L]	protease inhibitory activity, rhodesain (rhodesain)	MIC Staphylococcus aureus ATCC 33592 [7] [mg/L]	MIC Escherichia coli ATCC 35218 [8] [mg/L]	MIC Septoria tritici MUCL45407 [9] [mg/L]
O=C(N[C@H](CO)[C@H](O)c1ccc([N+](=O)[O-])cc1)C(Cl)Cl [chloramphenicol]	150	150	–	–	–	–	–	–	–	–	–
CC[C@H](C)C(=O)N[C@@H](Cc1ccccc1)C(=O)NC(C(=O)N[C@@H](CCCNC(=N)N)C(=O)NC(C(=O)N[C@@H](CC(C)C)C(=O)O)=C(C)C)=C(C)C [cryopeptin D (4)] (X1-F[ΔVal]R[ΔVal]L-OH)	–	–	> 128	>128	no protease inhibitory activity was observed	no protease inhibitory activity was observed	>128	no protease inhibitory activity was observed	>128	>128	>128
CC(C)=C(NC(=O)[C@H](Cc1ccccc1)NC(=O)CC(C)C)C(=O)N[C@@H](CCCNC(=N)N)C(=O)NC(C(=O)N[C@@H](CC(C)C)C(=O)O)=C(C)C [cryopeptin E (5)] (Isovaleryl-F[ΔVal]R[ΔVal]L-OH; N-terminus and C-terminus assumed)	–	–	–	>128	no protease inhibitory activity was observed	no protease inhibitory activity was observed	>128	no protease inhibitory activity was observed	>128	>128	>128
CC[C@H]1OC(=O)[C@H](C)[C@@H](O[C@H]2C[C@@](C)(OC)[C@@H](O)[C@H](C)O2)[C@H](C)[C@@H](O[C@@H]2O[C@H](C)C[C@H](N(C)C)[C@H]2O)[C@](C)(O)C[C@@H](C)C(=O)[C@H](C)[C@@H](O)[C@]1(C)O [erythromycin]	100	100	–	–	–	–	–	–	–	–	–
